Patent publication EP4741383A1, “COMPOUND AND USE THEREOF AS ANTI-CANCER DRUG” (Tyligand Bioscience (Shanghai) Limited, priority 2023, dated 2025)

Assays:
A2780 = test: CellTiter-Glo cell proliferation inhibition, A2780; type: cell-based; conditions: A2780 (human ovarian cancer cell line), 72 hours; read-out: Example IC50 (µM) A2780
From the text: (§1) This experiment used the CellTiter-Glo® Luminescent Cell Viability Assay kit from Promega to evaluate the inhibitory activity of the disclosed compounds on the proliferation of the following cell lines: 4T1 (mouse breast cancer cell line), A20 (mouse B-cell lymphoma cell line), A2780 (human ovarian cancer cell line), AsPC-1 (pancreatic cancer cell line), B16F10 (mouse melanoma cell line), BT549 (human breast cancer cell line), CT26 (mouse colon cancer cell line), EMT6 (mouse breast cancer cell line), HCT116 (colorectal cancer cell line), Jurket (acute leukemia cell line), KP-4 (pancreatic cancer cell line), LL/2 (mouse lung cancer cell line), MCF7 (breast cancer cell line), […] NCI-H358 (lung cancer cell line), NCI-H727 (gastric cancer cell line), NCI-1944 (lung cancer cell line), Pan 04.03 (pancreatic cancer cell line), SK-BR-3 (breast cancer cell line), THP-1 (leukemia cell line), TOV21G (ovarian cancer cell line), U87MG (glioblastoma cell line), and UM-UC-a (bladder cancer cell line). […]
(§2) Cells were cultured according to the instructions provided by the cell supplier (Nanjing Kebai Biotechnology Co., Ltd.). […] Suspension or adherent cells were collected, and cell viability was determined using the trypan blue exclusion method, ensuring that cell viability was above 90%. […]

Jurket = test: CellTiter-Glo cell proliferation inhibition, Jurket; type: cell-based; conditions: Jurket (acute leukemia cell line), 72 hours; read-out: Example IC50 (µM) Jurket
From the text: as §1, §2

KP-4 = test: CellTiter-Glo cell proliferation inhibition, KP-4; type: cell-based; conditions: Homo sapiens; KP-4 (pancreatic cancer cell line), 72 hours; read-out: Example IC50 (µM) KP-4
From the text: as §1, §2

LL/2 = test: CellTiter-Glo cell proliferation inhibition, LL/2; type: cell-based; conditions: LL/2 (mouse lung cancer cell line), 72 hours; read-out: Example IC50 (µM) LL/2
From the text: as §1, §2

TOV21G = test: CellTiter-Glo cell proliferation inhibition, TOV21G; type: cell-based; conditions: Homo sapiens; TOV21G (ovarian cancer cell line), 72 hours; read-out: Example IC50 (µM) TOV21G
From the text: as §1, §2

UM-UC-a = test: CellTiter-Glo cell proliferation inhibition, UM-UC-a; type: cell-based; conditions: UM-UC-a (bladder cancer cell line), 72 hours; read-out: Example IC50 (µM) UM-UC-a
From the text: as §1, §2

MCF7 = test: CellTiter-Glo cell proliferation inhibition, MCF7; type: cell-based; conditions: Homo sapiens; MCF7 (breast cancer cell line), 72 hours; read-out: Example IC50 (µM) MCF7
From the text: as §1, §2

4T1 = test: CellTiter-Glo cell proliferation inhibition, 4T1; type: cell-based; conditions: 4T1 (mouse breast cancer cell line), 72 hours; read-out: Example IC50 (µM) 4T1
From the text: as §1, §2

BT549 = test: CellTiter-Glo cell proliferation inhibition, BT549; type: cell-based; conditions: BT-549; BT549 (human breast cancer cell line), 72 hours; read-out: Example IC50 (µM) BT549
From the text: as §1, §2

B16F10 = test: CellTiter-Glo cell proliferation inhibition, B16F10; type: cell-based; conditions: B16-F10; B16F10 (mouse melanoma cell line), 72 hours; read-out: Example IC50 (µM) B16F10
From the text: as §1, §2

CT26 = test: CellTiter-Glo cell proliferation inhibition, CT26; type: cell-based; conditions: CT26 (mouse colon cancer cell line), 72 hours; read-out: Example IC50 (µM) CT26
From the text: as §1, §2

U87MG = test: CellTiter-Glo cell proliferation inhibition, U87MG; type: cell-based; conditions: Homo sapiens, U-87 MG; U87MG (glioblastoma cell line), 72 hours; read-out: Example IC50 (µM) U87MG
From the text: as §1, §2

Pan 04.03 = test: CellTiter-Glo cell proliferation inhibition, Pan 04.03; type: cell-based; conditions: Pan 04.03 (pancreatic cancer cell line), 72 hours; read-out: Example IC50 (µM) Pan 04.03
From the text: as §1, §2

AsPC-1 = test: CellTiter-Glo cell proliferation inhibition, AsPC-1; type: cell-based; conditions: Homo sapiens, ASPC1; AsPC-1 (pancreatic cancer cell line), 72 hours; read-out: Example IC50 (µM) AsPC-1
From the text: as §1, §2

SHP2 = SHP2 (Homo sapiens, UniProt Q06124); conditions: J. Med. Chem. 2014, 57, 6594-6609; read-out: enzyme activity IC50; cited from earlier work

IC50 (A2780)	IC50 (MCF7)	IC50 (4T1)	IC50 (BT549)	IC50 (B16F10)	IC50 (CT26)	IC50 (U87MG)	IC50 (AsPC-1)	SMILES	IC50 (Jurket)	IC50 (KP-4)	IC50 (LL/2)	IC50 (TOV21G)	IC50 (UM-UC-a)	IC50 (Pan 04.03)	IC50 (SHP2)
0.128 µM	0.083 µM	0.125 µM	0.121 µM	0.142 µM	0.123 µM	0.276 µM	0.121 µM	O=C(Nc1ccc(-c2csc(CO)c2)cc1)C(=O)Nc1ccc(-c2cc3cc(F)c(-c4nnn[nH]4)cc3n2C2CCC2)cc1 [Example 1]	0.165 µM	0.228 µM	0.207 µM	0.112 µM	0.193 µM	0.34 µM	–
–	–	–	–	–	–	–	–	Cn1c(-c2cccc(NC(=O)C(=O)Nc3ccc(-c4ccsc4)cc3)c2)c(I)c2cc(C(=O)O)c(O)cc21 [Example 11a-1, reference compound]	–	–	–	–	–	–	~200 nM
–	0.05 µM	0.14 µM	0.047 µM	–	0.134 µM	0.075 µM	–	O=C(Nc1ccc(-c2cc3cc(F)c(-c4nnn[nH]4)cc3n2C2CCC2)cc1)C(=O)Nc1ccc(N2CCC3(CCC(O)C3)CC2)cc1 (stereo not drawn) [Example 100]	–	–	–	0.106 µM	–	–	–
